{"source": "patent US5700640A", "about": "“Inducers of gamma globin gene expression and screening assays therefor” (priority 1994, dated 1997)", "key": {"[1]": {"test_system": "gamma globin-regulated luciferase mRNA", "assay": "cells", "assay_type": "cell-based, human", "description": "Total RNA was prepared by the method of McDonald as described in Sambrook et al., (1989) Molecular Cloning: A Laboratory Manual, 2nd Edition, Cold Spring Harbor Laboratory Press. 10 μg total cellular RNA was electrophoresed through agarose gels containing 3.3% formaldehyde. The electrophoresed RNA was then transferred to nitrocellulose filters by standard methods. Each sample was hybridized to specific probes for gamma globin mRNA, mRNA encoding the erythroid specific transcription factor GATA-1 and 28S ribosomal RNA (which was used for standardization). The gamma globin and GATA-1 probes were cDNA probes, which were labeled with ^32 p by random priming reactions (Promega Biotech Inc.). The 28S ribosomal RNA probe was an oligonucleotide having the sequence 5' […] 3' (SEQ ID NO: 3), which was labeled by 5' end labeling using T4 polynucleotide kinase (New England Biolabs). Nucleotide probes were hybridized to the RNA nitrocellulose filters according to standard techniques. After hybridization, radioactive signals on the nitrocellulose filters were directly quantified using a BioRad GS-250 Molecular Imager. mRNA hybridization intensities were normalized to the amount of 28S ribosomal RNA present for each sample. The results are summarized below in Table 1:\nTo determine if BA exerts its inductive effects by acting directly on pre-existing proteins in the cells, the effect of the protein synthesis inhibitor cycloheximide (CHX) on BA-induced expression of RNA was analyzed. In these experiments, gamma3'PE cells were incubated with 150 μg/ml CHX for 2 hr prior to addition of BA (5 mM). Control cells were incubated with either CHX or BA alone or were mock incubated. Cells were harvested 5 hr later for preparation of total RNA. RNA samples were electrophoresed, transferred to nitrocellulose and hybridized to a ^32 P-labeled luciferase cDNA probe as described in Example 4. The radioactive signals on the filter were quantitated using a BioRad GS-250 Molecular Imager and mRNA levels were normalized to values obtained for mock treated samples. […]"}, "GATA-1 mRNA": {"test_system": "GATA-1 mRNA", "assay": "GATA-1 mRNA level (Northern) with BA and/or cycloheximide in gamma3'PE cells", "assay_type": "cell-based, human", "description": "To determine if BA exerts its inductive effects by acting directly on pre-existing proteins in the cells, the effect of the protein synthesis inhibitor cycloheximide (CHX) on BA-induced expression of RNA was analyzed. In these experiments, gamma3'PE cells were incubated with 150 μg/ml CHX for 2 hr prior to addition of BA (5 mM). Control cells were incubated with either CHX or BA alone or were mock incubated. Cells were harvested 5 hr later for preparation of total RNA. RNA samples were electrophoresed, transferred to nitrocellulose and hybridized to a ^32 P-labeled luciferase cDNA probe as described in Example 4. The radioactive signals on the filter were quantitated using a BioRad GS-250 Molecular Imager and mRNA levels were normalized to values obtained for mock treated samples. The results are presented graphically in FIG. 12, Panel A. BA treatment alone increased gamma globin-regulated luciferase mRNA by approximately 6 fold.\nThe results, normalized to mock treated samples, are depicted graphically in FIG. 12, Panel B. In contrast to luciferase mRNA which was induced by BA treatment, the level of GATA-1 RNA decreases about 3 fold in response to BA treatment."}, "[2]": {"test_system": "gamma globin reporter gene activity in gamma3'PE K562 cells (protein kinase C inhibition)", "assay": "effect of the pKC inhibitor hypericin on basal and BA-induced reporter gene activity", "assay_type": "cell-based, human", "settings": "10 mM hypericin, 1 hour before 5 mM BA for 24 hours", "description": "Consistent with the results using the pKC activator (-) indolactam V are the results of experiments utilizing the pKC inhibitor hypericin. In these experiments, cells were incubated in the presence or absence of hypericin (10 mM; LC Laboratories) for one hour prior to treatment with 5 mMBA for 24 hours, followed by harvesting of the cells and assaying of luciferase activity."}, "[3]": {"test_system": "BA-mediated induction of luciferase activity in gamma3'PE K562 cells", "assay": "effect of transport inhibitors on BA-induced reporter gene activity in gamma3'PE K562 cells", "assay_type": "cell-based, human", "description": "To characterize uptake of butyric acid by erythroid cells, K562 cells stably transfected with gamma3'PE were treated with BA in the presence of various transport inhibitors. […] Cells were maintained in the continuous presence of both BA and the inhibitor for 24 hours and then luciferase activity in the cells was measured."}, "[4]": {"test_system": "14C BA transport into K562 cells", "assay": "14C butyric acid incorporation into gamma3'PE-transfected K562 cells", "assay_type": "cell-based, human", "settings": "valinomycin 10 μM, 1 hour preincubation; 50 μM 14C BA", "description": "To directly examine whether transport of BA into erythroid cells required an intact K+ gradient, the incorporation of ^14 C BA into gamma3'PE-transfected K562 cells was assayed in the presence and absence of 10 μM valinomycin. Cells were incubated with 10 μM valinomycin for 1 hour prior to addition of ^14 C butyric acid (obtained commercially from Dupont/New England Nuclear) to a final concentration of 50 μM. At various times after addition of ^14 C BA, cells were harvested by vacuum filtration through a GF/C filter (Whatman) and washed with a total of 5 ml of RPMI culture media. Radioactivity associated with the cells was quantified directly by liquid scintillation counting of the filter. The results, shown in FIG. 11, indicate that the rate of ^14 C BA incorporation into the cells is inhibited nearly three fold by the addition of valinomycin. Although cells treated with valinomycin did accumulate some ^14 C BA, it is not clear whether this was actually internalized or bound to the surface of the cell. Neutralization of the potassium gradient could be expected to selectively prevent internalization but not binding of radioligand. […] Accordingly, the results described herein are consistent with an erythroid-specific transport mechanism for uptake of BA that is dependent upon an intact K^+ gradient across the cell membrane."}, "K562 cells": {"test_system": "K562 cells", "assay": "trypan blue exclusion", "assay_type": "cell-based, human"}, "BA uptake by colonocytes": {"test_system": "BA uptake by colonocytes", "settings": "Mascolo et al. 1991; cited from earlier work"}, "[5]": {"test_system": "BA-induced reporter gene expression in gamma3'PE K562 cells", "assay": "effect of extracellular KCl on BA-induced reporter gene activity", "assay_type": "cell-based, human", "description": "Valinomycin is a potassium ionophore known to cause depolarization of the K^+ gradient existing across cell membranes. To determine whether the effect of valinomycin indicated a requirement for a K^+ gradient for uptake of BA, gamma3'PE reporter cells were incubated in the presence of culture medium supplemented with increasing concentrations of KCl. Thus, as opposed to valinomycin, this treatment extinguishes the existing K^+ gradient from the external side of the membrane without affecting internal K^+ concentrations. Cells cultured in increasing concentrations on KCl were treated for 5 hours with BA and then harvested and assayed for luciferase activity. The results are shown in FIG. 10, wherein the bars indicate the level of reporter gene activity after induction in the presence of the indicated concentration of KCl and the asterisks indicate basal (uninduced) levels of reporter gene activity in replicate cultures."}}}
{"smiles": "C[C@@H]1C[C@@H]([C@H](O)CC2CC(=O)NC(=O)C2)C(=O)[C@@H](C)C1", "note": "[cycloheximide]", "values": [{"measurement": "effect of cycloheximide alone on luciferase mRNA", "setting": "[1]; 150 μg/ml CHX alone", "result": "significant increase in gamma globin-regulated luciferase mRNA, albeit to a lower level than that observed with BA"}, {"measurement": "effect of cycloheximide on BA-mediated induction of luciferase mRNA", "setting": "[1]; CHX 150 μg/ml 2 hr before BA 5 mM", "result": "failed to block BA-mediated induction of luciferase mRNA"}, {"measurement": "effect of cycloheximide alone on GATA-1 mRNA level", "setting": "GATA-1 mRNA; 150 μg/ml CHX alone", "result": "insensitive to cycloheximide treatment alone"}, {"measurement": "effect of cycloheximide on BA induced decrease in GATA-1 mRNA level", "setting": "GATA-1 mRNA; CHX 150 μg/ml plus BA 5 mM", "result": "sensitive to cycloheximide treatment"}]}
{"smiles": "Cc1cc(O)c2c(=O)c3c(O)cc(O)c4c5c(O)cc(O)c6c(=O)c7c(O)cc(C)c8c1c2c(c34)c(c78)c65", "note": "[hypericin]", "values": [{"measurement": "effect on basal level and BA induced globin gene expression", "setting": "[2]", "result": "significant reduction in both basal level and BA induced globin gene expression"}]}
{"smiles": "CC(C)[C@@H]1NC(=O)[C@H](C)OC(=O)[C@@H](C(C)C)NC(=O)[C@@H](C(C)C)OC(=O)[C@H](C(C)C)NC(=O)[C@H](C)OC(=O)[C@@H](C(C)C)NC(=O)[C@@H](C(C)C)OC(=O)[C@H](C(C)C)NC(=O)[C@H](C)OC(=O)[C@@H](C(C)C)NC(=O)[C@@H](C(C)C)OC1=O", "note": "[valinomycin]", "values": [{"measurement": "reduction in BA-mediated globin gene induction", "setting": "[3]; valinomycin 10 μM, 24 hours", "result": 4, "unit": "fold"}, {"measurement": "effect on basal level globin gene expression", "setting": "[3]; valinomycin, no BA", "result": "did not affect basal level globin gene expression"}, {"measurement": "inhibition of rate of 14C BA incorporation", "setting": "[4]", "result": "three"}, {"measurement": "non-specific toxic effect", "setting": "K562 cells", "result": "did not result from a non-specific toxic effect"}, {"measurement": "effect on BA uptake by colonocytes", "setting": "BA uptake by colonocytes", "result": "not inhibited by valinomycin"}]}
{"smiles": "[Cl-].[K+]", "note": "[KCl]", "values": [{"measurement": "basal level globin expression at higher K+ concentrations", "setting": "[5]; K+ above approximately 200 mM", "result": "a reduction in basal level globin expression was observed at higher K^+ concentrations"}, {"measurement": "external K+ concentration inhibiting BA-induced reporter gene expression", "setting": "[5]; KCl in medium, BA 5 hours", "result": "approximately 200 mM"}, {"measurement": "effect on basal level gene expression", "setting": "[5]; approximately 200 mM KCl", "result": "basal level gene expression was not affected"}]}
